In patent US7390910B2, “Compounds for treating tumors” (priority 2003, dated 2008):
Marks after values point to notes of the source that are not given here. Where a SMILES comes first, the peptide text is derived from it. [ ]: non-standard residue; d: D form. The star is where a group is joined. NMePhe(β,β-Me2) = CN[C@H](C(=O)O)C(C)(C)c1ccccc1; Tle = CC(C)(C)[C@H](N)C(=O)O; NMeV = CN[C@H](C(=O)O)C(C)C; NHBn = c1ccc(CN*)cc1

Columns and labels:
[1] = tested on: bovine microtubule-associated protein (MAP)-rich tubulin; format: biochemical
Method: Tubulin Polymerization Assays. For in vitro tubulin polymerization assays, bovine microtubule-associated protein (MAP)-rich tubulin, PEM buffer [80 mM Na-PIPES (pH 6.9), 1 mM MgCl2, and 1 mM EGTA], and GTP are purchased from Cytoskeleton (Denver, Colo.). MAP-rich tubulin (final concentration 1.5 mg/ml) is dissolved in cold PEM buffer containing 1 mM GTP (GPEM) and centrifuged at 12,000×g for 10 min at 4° C. The tubulin solution (100 μl/well) is added rapidly to wells of a low-volume, 96-well plate already containing duplicate aliquots (10 μl) of test compounds in GPEM. […] Control wells contained the same final concentration of DMSO (0.3%). After initiation of the reaction, absorbance at 340 nm is measured every minute for 60 min at 24° C. using a SpectraMax Plus plate reader (Molecular Devices, Sunnyvale, Calif.).

KB cells = assay: cells; format: cell-based; details: 3 days, SRB
Method: (§1) Cell Survival Assay: Standard Pharmacological Test Procedure. […] Compounds are incubated with cells for 3 days.

KB85 = assay: cells; format: cell-based; details: for IC50: 3 days, SRB
Method: as §1

KBV1 = assay: cells; format: cell-based; details: for inhibition at 3 µM: KB-V1, 3000 nM; for IC50: 3 days, SRB
Method: as §1

Row | Compound | Tubulin Polym. % inhibition at 0.3 uM [1] | IC50 (KB cells; Homo sapiens, KB, 72 h) [nM] | IC50 (KB85; 72 h) [nM] | inhibition at 3 µM (KBV1; Homo sapiens) [%] | Tubulin Polym. % inhibition at 0.5 uM [1] | IC50 (KB cells) [nM] | IC50 (KB85) [nM] | IC50 (KBV1) [nM] | IC50 (KBV1; Homo sapiens, KB-V1, 72 h) [nM] | KB85 % inhibition @ 3000 nM (KB85; 3000 nM) [%] | KBV1 % inhibition @ 3000 nM (KBV1; 3000 nM) [%]
1 | C/C(=C\[C@H](C(C)C)N(C)C(=O)[C@@H](NC(=O)C1N(C)CCSC1(C)C)C(C)(C)C)C(=O)O (stereo partly drawn) [Example 58, (2E,4S)-2,5-dimethyl-4-(methyl{3-methyl-N-[(2,2,4-trimethylthiomorpholin-3-yl)carbonyl]-L-valyl}amino)hex-2-enoic acid] | 89(2) % | 427 | 550 | 15 |  |  |  |  |  |  | 
2 | CN[C@@H](C(=O)N[C@H](C(=O)N(C)[C@H](/C=C(\C)C(=O)N1CCOCC1)C(C)C)C(C)(C)C)C(C)(C)c1cc(C)cc(C)c1 [Example 5, N,β,β,3,5-Pentamethyl-D-phenylalanyl-N^1-[(1S,2E)-1-isopropyl-3-methyl-4-morpholin-4-yl-4-oxobut-2-enyl]-N^1,3-dimethyl-L-valinamide] | 57% | 207 | 459 | 40 |  |  |  |  |  |  | 
3 | 3-hydroxy-N-methyl-L-valyl-N^1-[(1S,2E)-4-ethoxy-1-isopropyl-3-methyl-4-oxo-2-butenyl]-N^1,3-dimethyl-L-valinamide and 3-hydroxy-N,N-dimethyl-L-valyl-N^1-[(1S,2E)-4-ethoxy-1-isopropyl-3-methyl-4-oxo-2-butenyl]-N^1,3-dimethyl-L-valinamide [Example 61] |  |  |  |  | 40*** % | 151 | 293 | > 3000 |  |  | 
4 | CN[C@H](C(=O)N[C@H](C(=O)N(C)[C@H](C(=O)N1CCC[C@H]1C(=O)N1CCC[C@H]1C(=O)NCc1ccccc1)C(C)C)C(C)(C)C)C(C)(C)c1ccccc1 [Example 34, N,β,β-trimethyl-L-phenylalanyl-3-methyl-L-valyl-N-methyl-L-valyl-L-prolyl-N-benzyl-L-prolinamide] (H-[NMePhe(β,β-Me2)][Tle][NMeV]PP-NHBn) | 64% | 0.25 | 4.2 | 5 |  |  |  |  | 1950 |  | 
5 | CN[C@H](C(=O)N[C@H](C(=O)N(C)[C@H](/C=C(\C)C(O)c1nccs1)C(C)C)C(C)(C)C)C(C)(C)c1ccccc1 (stereo partly drawn) [Example 77, N,β,β-trimethyl-L-phenylalanyl-N-1-[(1S,2E)-4-hydroxy-1-isopropyl-3-methyl-4-(1,3-thiazol-2-yl)but-2-enyl]-N-1-,3-dimethyl-L-valinamide] | 97% |  |  |  |  | 13 | 19 | 364 |  |  | 
6 | CN[C@H](C(=O)N[C@H](C(=O)N(C)[C@H](/C=C/P(=O)(OC)OC)C(C)C)C(C)(C)C)C(C)(C)c1ccccc1 [Example 68, N,β,β-trimethyl-L-phenylalanyl-N^1-[(1S,2E)-3-(dimethoxyphosphoryl)-1-isopropylprop-2-enyl]-N^1,3-dimethyl-L-valinamide] | 45% | 1980 | 2080 | 8 |  |  |  |  |  |  | 
7 | CN[C@H](C(=O)N[C@H](C(=O)N(C)[C@H](/C=C(\C)[C@H](O)c1ccccc1)C(C)C)C(C)(C)C)C(C)(C)c1ccccc1 [Example 76, N,β,β-trimethyl-L-phenylalanyl-N-1-[(1S,2E,4S)-4-hydroxy-1-isopropyl-3-methyl-4-phenylbut-2-enyl}-N-1,3-dimethyl-L-valinamide] |  |  |  |  | 63*** % | 16 | 22 | 190 |  |  | 
8 | N,β,β-trimethyl-L-phenylalanyl-N^1-{(1S,2E)-4-[(2S)-2-(2-phenethoxycarbonyl)pyrrolidin-1-yl]-1-isopropyl-3-methyl-4-oxobut-2-enyl}-N^1,3-dimethyl-L-valinamid [Example 37] | 86% |  |  |  |  | 6.4 | 21 | 1640 |  |  | 
9 | CN[C@H](C(=O)N[C@H](C(=O)N(C)[C@H](/C=C(\C)C(=O)N1CCC[C@H]1C(=O)O)C(C)C)C(C)(C)C)C(C)(C)c1ccc(C)c(C)c1 [Example 18, N,β,β,3,4-Pentamethyl-L-phenylalanyl-N^1-{(1S,2E)-4-[(2S)-2-carboxypyrrolidin-1-yl]-1-isopropyl-3-methyl-4-oxobut-2-enyl}-N^1,3-dimethyl-L-valinamide] | 76% | 74 | 519 | 6 |  |  |  |  |  |  | 
10 | CN[C@H](C(=O)N[C@H](C(=O)N(C)[C@H](/C=C(\C)C(=O)N1CCN(CCCN(C)C)CC1)C(C)C)C(C)(C)C)C(C)(C)c1ccccc1 [Example 38, N,β,β-trimethyl-L-phenylalanyl-N^1-((1S,2E)-4-{4-[3-(dimethylamino)propyl]piperazin-1-yl}-1-isopropyl-3-methyl-4-oxobut-2-enyl)-N^1,3-dimethyl-L-valinamide] | 75% | 20 | 529 | 0 |  |  |  |  |  |  | 
11 | CN[C@@H](C(=O)N[C@H](C(=O)N(C)[C@H](/C=C(\C)C(=O)N1CCOCC1)C(C)C)C(C)(C)C)C(C)(C)c1ccc(C)c(C)c1 [Example 4, N,β,β,3,4-Pentamethyl-D-phenylalanyl-N^1[(1S,2E)-1-isopropyl-3-methyl-4-morpholin-4-yl-4-oxobut-2-enyl]-N^1,3-dimethyl-L-valinamide] | 61% | 375 | 536 | 42 |  |  |  |  |  |  | 
12 | CN[C@H](C(=O)N[C@H](C(=O)N(C)[C@H](/C=C(\C)C(=O)N1CCOCC1)C(C)C)C(C)(C)C)C(C)(C)c1cccc(C)c1 [Example 1, N,β,β,3-Tetramethyl-L-phenylalanyl-N^1-[(1S,2E)-1-isopropyl-3-methyl-4-morpholin-4-yl-4-oxobut-2-enyl]-N^1,3-dimethyl-L-valinamide] | 79% | 19.5 | 56 |  |  |  |  |  | 1510 |  | 
13 | C/C(=C\[C@H](C(C)C)N(C)C(=O)[C@@H](NC(=O)[C@@H](N(C)C)C(C)(C)c1ccccc1)C(C)(C)C)C(=O)N1CCN(Cc2ccccc2)CC1 [Example 15, N,β,β,β-Tetramethyl-L-phenylalanyl-N^1[(1S,2E)-4-(4-benzylpiperazin-1-yl)-1-isopropyl-3-methyl-4-oxobut-2-enyl]-N^1,3-dimethyl-L-valinamide] | 77% |  |  |  |  | 7.2 | 18 | 354 |  |  | 
14 | CN[C@H](C(=O)N[C@H](C(=O)N(C)[C@H](/C=C(\C)C(=O)N1CCC[C@H]1C(=O)OC)C(C)C)C(C)(C)C)C(C)(C)c1ccc(C)c(C)c1 [Example 17, N,β,β,3,4-Pentamethyl-L-phenylalanyl-N^1-{(1S,2E)-4-[(2S)-2-(methoxycarbonyl)pyrrolidin-1-yl]-1-isopropyl-3-methyl-4-oxobut-2-enyl}-N^1,3-dimethyl-L-valinamide] | 71% | 1.9 | 15 |  |  |  |  |  | 363 |  | 
15 | CN[C@H](C(=O)N[C@H](C(=O)N(C)[C@H](/C=C(\C)C(=O)N1CCCC[C@H]1C(=O)OC)C(C)C)C(C)(C)C)C(C)(C)c1ccccc1 [Example 49, N,β,β-trimethyl-L-phenylalanyl-N^1-{(1S,2E)-1-isopropyl-4-[(2S)-2-(methoxycarbonyl)piperidin-1-yl]-3-methyl-4-oxobut-2-enyl}-N^1,3-dimethyl-L-valinamide] | 62(2) % | 5.2 | 17 |  |  |  |  |  | 150 |  | 
16 | CN[C@H](C(=O)N[C@H](C(=O)N(C)[C@H](/C=C(\C)C(=O)N1CCC[C@H]1C(=O)O)C(C)C)C(C)(C)C)C(C)(C)c1cc(C)cc(C)c1 [Example 20, N,β,β,3,5-Pentamethyl-L-phenylalanyl-N^1-{(1S,2E)-4-[(2S)-2-carboxypyrrolidin-1-yl]-1-isopropyl-3-methyl-4-oxobut-2-enyl}-N^1,3-dimethyl-L-valinamide] | 80% | 82 | 664 | 3 |  |  |  |  |  |  | 
17 | Ethyl (E,4S)-4-[((2S)-2-{[(2S)-2-azido-3-methyl-3-phenylbutanoyl]amino}-3,3 -dimethylbutanoyl)(methyl)amino]-2,5-dimethyl-2-hexenoate and ethyl (E,4S)-4-[((2S)-2-{[(2R)-2-azido-3-methyl-3-phenylbutanoyl]amino}-3,3-dimethylbutanoyl)(methyl)amino]-2,5-dimethyl-2-hexenoate [Example 93] |  |  |  |  |  | 2510 |  |  |  | 30 | 30
18 | CN[C@H](C(=O)N[C@H](C(=O)N(C)[C@H](/C=C(\C)C(=O)N1CC=C[C@H]1C(=O)O)C(C)C)C(C)(C)C)C(C)(C)c1ccccc1 [Example 48, N,β,β-trimethyl-L-phenylalanyl-N^1-{(1S,2E)-4-[(2S)-2-carboxy-2,5-dihydro-1H-pyrrol-1-yl]-1-isopropyl-3-methyl-4-oxobut-2-enyl}-N^1,3-dimethyl-L-valinamide] | 91(2) % | 58 | 184 | 15 |  |  |  |  |  |  | 
19 | CN[C@@H](C(=O)N[C@H](C(=O)N(C)[C@H](/C=C(\C)C(=O)O)C(C)C)C(C)(C)C)C12CC3CC(CC(C3)C1)C2 [Example 56, (2E,4S)-4-[{N-[(2R)-2-(1-adamantyl)-2-(methylamino)ethanoyl]-3-methyl-L-valyl}(methyl)amino]-2,5-dimethyl-2-hexenoic acid] |  | 468 | 575 | 11 |  |  |  |  |  |  | 
